According to paper PMC11251039, “Harnessing cholesterol uptake of malaria parasites for therapeutic applications” (EMBO Molecular Medicine, 2024):
pIC50: −log10 of the molar value. Values joined by “and” are separate entries in the source; they are usually repeats but may differ in a detail not shown here. Equal entries are not always repeated. Where two headings read alike, the source gives them in different places.

Key:
[1] = tested on: asexual P. falciparum 3D7 wild-type parasites; experiment: P. falciparum asexual growth inhibition assay (SYBR Safe DNA replication); format: cell-based, Plasmodium falciparum; set-up: Figure 5B dose-response source data (growth, replicate values): unit not given here; conditions: for Figure 5B dose-response source data (growth, replicate values): individual replicates; for pIC50: 72 h, read-out: IC50, P. falciparum asexual growth inhibition
Method: P. falciparum asexual parasite assays commenced with ring-stage parasites at 1% parasitaemia and 1% haematocrit. 200 nM chloroquine (Sigma C6628) or artesunate (Sigma A3731) was used as a no-growth control. DNA replication (indicating growth) was measured at the specified time using SYBR Safe DNA Gel Stain (Invitrogen 33102) and a fluorescence microplate reader (Smilkstein et al, [2004]; Spry et al, [2013]). […]
Growth and Viability Inhibition Assays:
Plasmodium falciparum Growth Inhibition Assays:
P. falciparum parasites were maintained under routine culture conditions in red blood cells and RPMI 1640-Hepes with Glutamax, supplemented with 10 mM D-glucose, 480 μM hypoxanthine, 20 μg/mL gentamicin, 0.375% (w/v) AlbuMAXTM II (Thermo Fisher 11021029), and 2.5% v/v heat-inactivated human serum (17). Cultures were maintained at 37 °C […]
wildtype parasites except for the ring stage survival assay, as specified. Cultures were synchronised with 5% w/v D-sorbitol (18).
Growth inhibition was investigated according to methods described by Smilkstein et al. (19) with modifications by Spry et al. (20). Compounds or solvent controls (DMSO, ethanol, or ethyl acetate) were serially diluted 2-fold across flat-bottom 96-well plates. Culture media without compound was used as a negative control. 200 nM chloroquine (Sigma C6628) or artesunate (Sigma A3731) was used as a positive control to determine background fluorescence. The parasitaemia of a culture containing predominantly ring stage parasites was counted by Giemsa smear. The parasitaemia was adjusted to 1% by addition of fresh uRBCs and added to the plate at a final haematocrit of 1%, with 200 µL per well. The plates were incubated at 37 °C under humid microaerophilic conditions. After 24, 48, or 72 hours, the plates were transferred to a -18 °C freezer to stop the assay and lyse cells. Plates were thawed and lysate was mixed 1:1 with SYBR Safe DNA Gel Stain (Invitrogen 33102) (final concentration 1/10,000) diluted in lysis buffer (20 mM TRIS, 5 mM EDTA, 0.008% w/v Saponin, 0.08% w/v Triton-X 100, pH 7.5). Fluorescence was detected at 490 nm excitation/ 520 nm emission on a FLUOstar Optima fluorescence plate reader (BMG Labtech).

[2] = tested on: human embryonic kidney cells (HEK293); experiment: Human embryonic kidney cell viability assay (MTT); format: cell-based; conditions: for Dose-response data points (Figure 5C): replicate data points; for pIC50: 96 h, HEK293, read-out: IC50, human embryonic kidney cell inhibition (viability)
Method: HEK293 cell viability assays commenced with 5000 cells per well. 10 µg/mL cycloheximide was used as a no-growth control. Metabolic capacity (indicating viability) was measured in an absorbance microplate reader after incubation with 0.45 mg/mL methylthiazolyldiphenyl-tetrazolium bromide (MTT; Sigma M2128) for 2 h followed by crystal solubilisation in SDS. […]
Human Embryonic Kidney Cell Viability Assays:
Human Embryonic Kidney Cell (HEK293) culture:
The HEK293 cell line was maintained under routine culture conditions in DMEM containing 3.7 g/L NaHCO3 supplemented with 10% FBS, 200 μM glutamine, 100 units/mL penicillin, and 100 μg/mL streptomycin at 37 °C in a humidified 5% CO2 incubator.
Cells were detached from a flask using 0.25% Trypsin with 0.2 g/L EDTA (Sigma T4049) and washed with culture media containing no phenol red. Cells were incubated with a serial dilution of each compound, or media/DMSO alone. The protein synthesis inhibitor cycloheximide (Sigma 01810) at 10 µg/mL was used as a positive control to determine background absorbance. 5,000 cells were seeded in each well. After 96 hours, 0.45 mg/mL methylthiazolyldiphenyl-tetrazolium bromide (MTT; Sigma M2128) was added and incubated for a further two hours, before mixing 1.1:1 with 10% w/v sodium dodecyl sulfate (SDS) to solubilise crystals and freezing the plate at -18 °C to stop the assay. […]

C[C@]12CC[C@H](O)CC1=CC[C@@H]1[C@@H]2CC[C@]2(C)C(=O)CC[C@@H]12 [DHEA, Dehydroepiandrosterone]
Figure 5B dose-response source data (growth, replicate values) ([1]; Concentration 1.5625 uM): 105 and 100.9 and 101.2 (2×) and 104.8 and 107.1 and 104 and 104.2 and 97.24 | Figure 5B dose-response source data (growth, replicate values) ([1]; Concentration 3.125 uM): 99.54 and 98.59 and 99.35 and 103.6 and 96.02 and 105.9 and 103.9 and 101.1 and 100.2 | Figure 5B dose-response source data (growth, replicate values) ([1]; Concentration 6.25 uM): 94.64 and 99.33 and 101.7 and 100.2 (2×) and 103.5 and 102.7 and 100.1 and 101.2 | Figure 5B dose-response source data (growth, replicate values) ([1]; Concentration 12.5 uM): 97.83 and 97.77 and 98.63 and 101.4 and 104.7 and 102.2 and 102.3 and 100.6 and 97.67 | Figure 5B dose-response source data (growth, replicate values) ([1]; Concentration 25 uM): 97.33 and 98.84 and 99.51 and 104.1 and 102.5 and 109.8 and 97.3 and 98.4 and 101.2 | Figure 5B dose-response source data (growth, replicate values) ([1]; Concentration 50 uM): 91.17 and 88.79 and 89.21 and 91.36 and 96.36 and 97.35 and 94.23 and 92.68 and 93.65 | Figure 5B dose-response source data (growth, replicate values) ([1]; Concentration 100 uM): 80.03 and 78.97 and 77.22 and 68.91 and 88.77 and 89.83 and 76.17 and 73.25 and 71.62 | Figure 5B dose-response source data (growth, replicate values) ([1]; Concentration 200 uM): 36.08 and 37.08 and 31 and 29.85 and 51.4 and 44.23 and 15.92 and 13.39 and 11.5 | Figure 5B dose-response source data (growth, replicate values) ([1]; Concentration 400 uM): 0.02245 and -0.2944 and -1.594 and 1.899 and 4.652 and 1.525 and -5.885 and -7.232 and -8.092 | pIC50 ([1]; Plasmodium falciparum, 3D7, 72 h): 3.82 | Dose-response data points (Figure 5C) ([2]; 3.125000 μM): 108.5 and 113.8 and 102.3 and 90.3 and 90.17 and 89.76 | Dose-response data points (Figure 5C) ([2]; 6.250000 μM): 115 and 79.4 and 102.8 and 86.08 and 90.81 and 85.1 | Dose-response data points (Figure 5C) ([2]; 12.500000 μM): 83.96 and 112.7 and 100.9 and 95.11 and 92.95 and 84.24 and 113.9 and 109.3 and 94.8 and 88.3 and 83.73 and 81.43 | Dose-response data points (Figure 5C) ([2]; 25.000000 μM): 74.02 and 110.4 and 109.9 and 89.17 and 79.81 and 87.49 and 124 and 119.6 and 106.3 and 78.12 and 83.41 and 71.52 | Dose-response data points (Figure 5C) ([2]; 50.000000 μM): 65.27 and 101.5 and 98.29 and 73.76 and 69.18 and 75.02 and 111.3 and 62.75 and 93.36 and 87.06 and 86.25 and 84.64 | Dose-response data points (Figure 5C) ([2]; 100.000000 μM): 28.83 and 48.06 and 53.97 and 38.87 and 26.11 and 38.89 and 29.34 and 31.58 and 34.33 and 61 and 65.6 and 64 | Dose-response data points (Figure 5C) ([2]; 200.000000 μM): -0.4301 and 3.655 and 7.381 and -0.1582 and -0.5868 and -0.7801 and -3.647 and -3.757 and -3.702 and -0.3542 and 0.648 and 0.1847 | Dose-response data points (Figure 5C) ([2]; 400.000000 μM): -1.929 and -2.654 and -2.355 and -0.05272 and -1.637 and -1.302 and -3.718 and -4.096 and -4.009 and -3.542 and -3.411 and -3.648 | pIC50 ([2]; Homo sapiens): 4.05

CC(C)(C)OOC(C)(C)C [Di-tert-butyl peroxide, di-tert-butyl peroxide, reference compound]
pIC50 [1]: < 4.60 | Figure 5B dose-response source data (growth, replicate values) ([1]; Concentration 0.039063 uM): 85.18 and 102.4 and 102.7 | Figure 5B dose-response source data (growth, replicate values) ([1]; Concentration 0.078125 uM): 74.12 and 92.74 and 101.2 | Figure 5B dose-response source data (growth, replicate values) ([1]; Concentration 0.15625 uM): 95.05 and 90.78 and 92.5 and 91.43 and 92.81 and 96.62 and 92.25 and 92.33 and 93.69 | Figure 5B dose-response source data (growth, replicate values) ([1]; Concentration 0.1953125 uM): 104.7 and 100.3 and 94.44 | Figure 5B dose-response source data (growth, replicate values) ([1]; Concentration 0.3125 uM): 87.88 and 89.77 and 89.55 and 85.58 and 96.69 and 99.28 and 97.57 and 87.06 and 96.72 | Figure 5B dose-response source data (growth, replicate values) ([1]; Concentration 0.390625 uM): 99.53 and 101.7 and 93.86 | Figure 5B dose-response source data (growth, replicate values) ([1]; Concentration 0.625 uM): 89.02 and 90.9 and 80.19 and 84.44 and 92.83 and 101.4 and 93.27 and 93.75 and 89.82 | Figure 5B dose-response source data (growth, replicate values) ([1]; Concentration 0.78125 uM): 99.16 and 101.8 and 97.31 | Figure 5B dose-response source data (growth, replicate values) ([1]; Concentration 1.25 uM): 89.1 and 88.53 and 87.02 and 94.06 and 87.75 and 98.34 and 95.66 and 89.13 and 92.05 | Figure 5B dose-response source data (growth, replicate values) ([1]; Concentration 1.5625 uM): 96.44 and 101 and 94.23 | Figure 5B dose-response source data (growth, replicate values) ([1]; Concentration 2.5 uM): 90.99 and 88.19 and 94.1 and 84.35 and 90.32 and 96.8 and 92.38 and 90.3 and 90.14 | Figure 5B dose-response source data (growth, replicate values) ([1]; Concentration 3.125 uM): 98.75 and 99.8 and 93.33 | Figure 5B dose-response source data (growth, replicate values) ([1]; Concentration 5 uM): 88.2 and 86.72 and 93.06 and 89.82 and 70.14 and 95.75 and 93.09 and 90.02 and 87.03 | Figure 5B dose-response source data (growth, replicate values) ([1]; Concentration 6.25 uM): 99.66 and 102.1 and 96.08 | Figure 5B dose-response source data (growth, replicate values) ([1]; Concentration 10 uM): 83.27 and 83.85 and 83.43 and 96.65 and 93.69 and 94.13 and 91.37 and 89.09 and 89.4 | Figure 5B dose-response source data (growth, replicate values) ([1]; Concentration 12.5 uM): 105.9 and 89.05 and 98.44 | Figure 5B dose-response source data (growth, replicate values) ([1]; Concentration 25 uM): 103.6 and 101.6 and 94.82 | pIC50 [2]: < 4.00
